One experiment deals with T1, GB1^b-RhaR (Escherichia coli, UniProt P09378).
T1 construct: GB1basic (N); made in house; host or cells: E. coli ArcticExpress(DE3), pET21-derived plasmid
Put plainly: EMSA in vitro DNA binding by GB1^b-RhaR. It counts as biochemical, E. coli. The source says:
All proteins for this study were expressed in E. coli. Untagged CRP was purified by Ni^2+-affinity chromatography as described. Lad protein was purified by ammonium sulfate precipitation and phosphocellulose column chromatography as described. RhaS-GB1^201b and GB1^b-RhaR were purified by Ni^2+-affinity chromatography. Briefly, plasmids derived from pET21 and expressing RhaS-GB1^201b and GB1^b-RhaR were transformed into competent cells of strains Acella™ (MoBiTec, Gottingen, Germany) or ArcticExpress(DE3) (Agilent Technologies, Santa Clara Calif.), respectively. The cells were grown in 1 liter TY plus ampicillin and rhamnose. Gentamycin was also added for GB1^b-RhaR. The cells were grown to OD600 of 0.5, transferred to a 15° C. shaker, 0.1 mM IPTG was added, and then incubated overnight. Cells were harvested by centrifugation and then resuspended in 30 mL of cold binding buffer (20 mM Tris, 500 mM NaCl, 5 mM imidazole, pH 7.9) plus L-rhamnose. Cells were lysed by three cycles of freeze thaw [with addition of lysozyme (0.4 mg/mL), tris(2-carboxyethyl)phosphine (TCEP, 1 mM) and phenylmethylsulfonyl fluoride (PMSF, 1 mM), at −80° C.] followed by sonication, and then centrifuged to remove cell debris. The supernatant was applied using an AKTAexplorer FPLC (GE Healthcare) to a 5 mL HiTrap Chelating HP column (GE Healthcare) that had been charged with 50 mM NiSO4, and equilibrated with 15 mL H2O and then 15 mL binding buffer. After loading, the column was washed with 25 mL binding buffer, then 25 mL wash buffer (binding buffer, but with 60 mM imidazole) plus L-rhamnose. A 10 mL gradient of binding buffer with 60 mM to 250 mM imidazole from was run and then 15 mL of elution buffer (binding buffer, but with 250 mM imidazole). […]
(§1) IRD700- and DY682-labeled oligos were from Eurofins MWG Operon. […] EMSA gels were imaged using an Odyssey infrared imager (LI-COR, Lincoln, Nebr.), and quantified using the Odyssey software, version 3.0.30. […] Inhibition values were calculated and graphs were drawn as for in vivo dose-response experiments.

The next experiment has as its target VirF (Shigella flexneri, UniProt P0A2T1). Put plainly: In vivo dose-response, VirF-activated virB-lacZ fusion in E. coli. It counts as cell-based. Details: expressed in transfected cells; host or cells: E. coli SME4382 (virB-lacZ, pHG165virF). An excerpt:
For dose-response studies, a virB-lacZ reporter strain was constructed that allowed IPTG (isopropyl-β-D-thiogalactopyranoside) induced expression of VirF from plasmid pHG165. To construct this virB-lacZ reporter strain, kMAD102 was isolated from strain AB97, used to infect strain ECL116, and single copy lysogens were identified. Plvir-mediated generalized transductions were then used to add malP::lacI^q and recA::cat to this strain, as described previously. The virF gene was amplified (Forward oligo, Reverse oligo), digested with EcoRI and PstI and then ligated into the same sites of plasmid pHG165. The resulting plasmid, pHG165virF was transformed into SME4259 to make SME4382 (FIG. 20, Top). A control strain, SME3359, which carries a single copy hts-lacZ reporter fusion in the chromosome and a plasmid pHG165lacI that expresses LacI protein (FIG. 20, Bottom), was constructed. Briefly, the hts-lacZ reporter fusion consists of a synthetic promoter that is repressed by Lad.
In vivo dose-response assays were performed using a procedure described previously. […] Bacterial cultures were mixed with varying concentrations of SE-1 (2.2% DMSO, final), induced with 6.5 mM IPTG for 3 h at 37° C., lysed and β-galactosidase activity was measured. […] IC50 values were calculated and graphs were drawn using Prism (GraphPad, La Jolla, Calif.).

For another experiment, the target named is T2, RhaS-GB1^201b (Escherichia coli, UniProt P09377, L201R).
T2 construct: solubility-enhancement tag to the C-terminus of full-length RhaS L201R; GB1basic (basic variant of GB1 solubility-enhancement tag) (C); made in house; host or cells: E. coli Acella, pET21-derived plasmid
Nature of the experiment: EMSA in vitro DNA binding by RhaS-GB1^201b. It is filed as biochemical, E. coli.
Description: All proteins for this study were expressed in E. coli. Untagged CRP was purified by Ni^2+-affinity chromatography as described. Lad protein was purified by ammonium sulfate precipitation and phosphocellulose column chromatography as described. RhaS-GB1^201b and GB1^b-RhaR were purified by Ni^2+-affinity chromatography. Briefly, plasmids derived from pET21 and expressing RhaS-GB1^201b and GB1^b-RhaR were transformed into competent cells of strains Acella™ (MoBiTec, Gottingen, Germany) or ArcticExpress(DE3) (Agilent Technologies, Santa Clara Calif.), respectively. The cells were grown in 1 liter TY plus ampicillin and rhamnose. Gentamycin was also added for GB1^b-RhaR. The cells were grown to OD600 of 0.5, transferred to a 15° C. shaker, 0.1 mM IPTG was added, and then incubated overnight. Cells were harvested by centrifugation and then resuspended in 30 mL of cold binding buffer (20 mM Tris, 500 mM NaCl, 5 mM imidazole, pH 7.9) plus L-rhamnose. […]
as §1
For orientation: Mobility shift assays separate free from complexed probe on a gel.

This is an account of results in patent publication US20140088144A1, “INHIBITING MICROBIAL INFECTIONS” (THE UNIVERSITY OF KANSAS, priority 2012, published 2014).

T1 sequence (P09378 whole entry): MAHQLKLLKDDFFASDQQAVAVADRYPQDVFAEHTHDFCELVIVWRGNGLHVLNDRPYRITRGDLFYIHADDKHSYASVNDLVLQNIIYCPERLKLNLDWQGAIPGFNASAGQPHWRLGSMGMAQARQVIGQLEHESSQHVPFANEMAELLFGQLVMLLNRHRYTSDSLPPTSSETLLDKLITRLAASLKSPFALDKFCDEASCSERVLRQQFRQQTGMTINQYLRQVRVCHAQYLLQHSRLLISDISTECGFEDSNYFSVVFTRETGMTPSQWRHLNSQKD
Chain of VirF (P0A2T1 whole entry, the tested form may be a part): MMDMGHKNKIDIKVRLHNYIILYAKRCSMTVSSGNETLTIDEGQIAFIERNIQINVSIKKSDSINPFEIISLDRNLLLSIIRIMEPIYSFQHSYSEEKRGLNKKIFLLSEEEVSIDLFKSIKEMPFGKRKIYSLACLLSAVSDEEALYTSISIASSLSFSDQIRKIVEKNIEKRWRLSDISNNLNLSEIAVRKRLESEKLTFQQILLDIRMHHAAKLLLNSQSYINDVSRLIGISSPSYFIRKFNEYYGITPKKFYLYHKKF
T2 sequence (P09377 whole entry L201R): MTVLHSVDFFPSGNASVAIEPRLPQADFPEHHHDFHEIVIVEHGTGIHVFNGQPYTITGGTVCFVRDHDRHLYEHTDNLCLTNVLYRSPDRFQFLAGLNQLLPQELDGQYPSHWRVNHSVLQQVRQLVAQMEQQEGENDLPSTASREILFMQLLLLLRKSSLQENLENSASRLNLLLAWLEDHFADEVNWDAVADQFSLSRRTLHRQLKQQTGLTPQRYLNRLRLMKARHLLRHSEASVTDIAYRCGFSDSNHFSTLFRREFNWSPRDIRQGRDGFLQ

In the case of `CCCCN1C=C(c2ccc3ccccc3n2)C(C[N+](=O)[O-])c2ccccc21` (stereo not shown) [Compound 1, 1-butyl-4-(nitromethyl)-3-quinolin-2-yl-4H-quinoline], at GB1^b-RhaR, the half-maximal inhibitory concentration (IC50) is approximately 140 µM, the “concentration for 50% inhibition of GB1^b-RhaR relative to RhaS-GB1^201b” value is on record as “two-fold higher” and the “inhibition of GB1^b-RhaR binding to DNA” value was “fully inhibit”. The molecule further gave an IC50 against VirF (IC50, virB-lacZ reporter fusion expression, E. coli strain with plasmid-expressed VirF) of approximately 8 µM. On VirF (compared with full-length RhaS), the “inhibition of in vivo activation by VirF” value is “similar, if not greater, extent than full-length RhaS”. The IC50 on RhaS-GB1^201b is approximately 70 µM. Besides, the “inhibition of DNA binding by RhaS-GB1^201b” value at RhaS-GB1^201b (EMSA, dose-dependent) is listed as “fully inhibit DNA binding”.

What is called IC50 is the concentration that gives 50% inhibition. Low values mean greater potency, high ones weaker potency.
